Measurements published in publication PMC8430952 (International Journal of Molecular Sciences, 2021).
No end group written: not given here.

T1: ATAD2 bromodomain (BRD), residues 981–1108 (Homo sapiens, UniProt Q6PL18)
T1 construct: Residues 981–1108 encoding the 128 amino acid ATAD2 BRD were PCR amplified; GST (with PreScission Protease site) (N, cleaved yes); made in house; host or cells: E. coli Rosetta 2(DE3) pLysS (non-codon-optimized) or BL21(DE3) pLysS (codon-optimized)
T1 sequence (Q6PL18 981-1108): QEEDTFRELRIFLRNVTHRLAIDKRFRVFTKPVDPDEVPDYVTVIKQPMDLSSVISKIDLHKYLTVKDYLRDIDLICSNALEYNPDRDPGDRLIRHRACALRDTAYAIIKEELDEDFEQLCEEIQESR

T2: ATAD2 BRD mutant N1064A (Homo sapiens, UniProt Q6PL18, N1064A)
T2 construct: ATAD2 (residues 981–1108) with a N1064A/I1074A/I1074Y mutation; GST (with PreScission Protease site) (N, cleaved yes); made in house; host or cells: E. coli
T2 sequence (Q6PL18 981-1108 N1064A): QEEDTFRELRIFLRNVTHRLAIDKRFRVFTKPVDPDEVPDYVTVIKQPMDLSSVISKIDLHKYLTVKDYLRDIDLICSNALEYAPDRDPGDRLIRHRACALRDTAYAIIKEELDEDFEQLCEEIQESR

T3: ATAD2 BRD mutant I1074A (Homo sapiens, UniProt Q6PL18, I1074A)
T3 construct: ATAD2 (residues 981–1108) with a N1064A/I1074A/I1074Y mutation; GST (with PreScission Protease site) (N, cleaved yes); made in house; host or cells: E. coli
T3 sequence (Q6PL18 981-1108 I1074A): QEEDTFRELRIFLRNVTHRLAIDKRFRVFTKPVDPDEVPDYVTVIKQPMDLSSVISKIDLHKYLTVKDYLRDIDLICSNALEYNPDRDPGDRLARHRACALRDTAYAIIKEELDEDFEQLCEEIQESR

T4: ATAD2 BRD mutant I1074Y (Homo sapiens, UniProt Q6PL18, I1074Y)
T4 construct: ATAD2 (residues 981–1108) with a N1064A/I1074A/I1074Y mutation; GST (with PreScission Protease site) (N, cleaved yes); made in house; host or cells: E. coli
T4 sequence (Q6PL18 981-1108 I1074Y): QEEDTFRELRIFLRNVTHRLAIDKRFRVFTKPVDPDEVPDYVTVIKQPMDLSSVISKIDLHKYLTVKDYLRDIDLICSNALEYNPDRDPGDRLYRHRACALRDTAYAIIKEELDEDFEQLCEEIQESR

T5: ATAD2 bromodomain (residues 966–1112, C1101A) (Homo sapiens, UniProt Q6PL18, C1101A)
T5 construct: GST (with PreScission protease cleavage site) (N, cleaved yes); made in house; host or cells: E. coli BL21(DE3) pLysS
T5 sequence (Q6PL18 966-1112 C1101A): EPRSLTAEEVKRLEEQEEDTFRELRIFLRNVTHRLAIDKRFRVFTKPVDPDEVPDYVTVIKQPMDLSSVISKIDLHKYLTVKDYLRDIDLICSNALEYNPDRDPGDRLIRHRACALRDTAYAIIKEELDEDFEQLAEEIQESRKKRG

T6: histone H4K5acK8ac 1-10 (Homo sapiens, UniProt P62805)
T6 chain: MSGRGK(Ac)GGK(Ac)G

T7: histone H4K12ac 4-17 (Homo sapiens, UniProt P62805)
T7 chain: RGKGGKGLGK(Ac)GGAK


Legend:
[1] = biological target: T1, ATAD2 bromodomain (BRD), residues 981–1108; test: ITC of histone peptides with the wild-type ATAD2 bromodomain; type: binding; conditions: for N-Value (stoichiometry of binding, peptide-to-bromodomain ratio) / ATAD2 BRD KD: ITC, 5 °C; for N-Value (stoichiometry of binding, peptide-to-bromodomain ratio): ATAD2 BRD (residues 981–1108, wild type), one set of sites model; for Kd: SD; for ATAD2 BRD KD: 150 mM NaH2PO4 and 150 mM NaCl, 5 mM peptide titrated into 0.2 mM ATAD2 BRD (residues 981–1108, wild type), 1:1 binding model, mean ± SD of three runs, no binding repeated in duplicate
Description: (§1) Purified protein was concentrated to a volume of 3 mL and dialyzed into ITC buffer (150 mM NaH2PO4 and 150 mM NaCl) for 48 h. ITC experiments with histone peptides were carried out at 5 °C using a MicroCal iTC200 (Malvern Panalytical, Westborough, MA, USA). […] The stirring speed was set at 750 RPM. After excluding the first injection, the ITC binding isotherms were integrated using a Marquandt nonlinear least-squares analysis according to a 1:1 binding model assuming a single set of identical binding sites with the Origin 7.0 program (OrginLab Corporation, Northampton, MA, USA). The raw data were corrected for non-specific heats of dilution determined by the magnitude of the peaks appearing after the system reaches complete saturation. The obtained heats of dilution were analyzed according to a one set of sites binding model and used to calculate binding affinities, N values, and thermodynamic values. […] The mean Kd was calculated from the average of the three runs, and the standard deviation was calculated from the mean.

ATAD2 BRD mutant N1064A = biological target: T2, ATAD2 BRD mutant N1064A; test: ITC of histone peptides with the ATAD2 bromodomain mutant N1064A; type: binding; conditions: ATAD2 (residues 981–1108) N1064A mutant bromodomain
Description: as §1

ATAD2 BRD mutant I1074A = biological target: T3, ATAD2 BRD mutant I1074A; test: ITC of histone peptides with the ATAD2 bromodomain mutant I1074A; type: binding; conditions: ATAD2 (residues 981–1108) I1074A mutant bromodomain
Description: as §1

ATAD2 BRD mutant I1074Y = biological target: T4, ATAD2 BRD mutant I1074Y; test: ITC of histone peptides with the ATAD2 bromodomain mutant I1074Y; type: binding; conditions: ATAD2 (residues 981–1108) I1074Y mutant bromodomain
Description: as §1

[2] = biological target: histone H4K5ac (Homo sapiens) (UniProt P62805); test: ITC; conditions: cited from earlier work
[3] = biological target: histone H4K8ac (Homo sapiens) (UniProt P62805); test: ITC; conditions: cited from earlier work
[4] = biological target: T5, ATAD2 bromodomain (residues 966–1112, C1101A); test: ITC of histone H4 peptides with the longer ATAD2 bromodomain construct; type: binding; conditions: for N-Value (stoichiometry of binding): ITC, 5 °C, ATAD2 bromodomain residues 966–1112, C1101A; for Kd: SD, read-out: KD from ITC
Description: as §1

histone H4K5acK8ac 1-10 = biological target: T6, histone H4K5acK8ac 1-10; test: ITC
histone H4K12ac 4-17 = biological target: T7, histone H4K12ac 4-17; test: ITC

N-Value (stoichiometry of binding, peptide-to-bromodomain ratio) [1] | Kd [1] [µM] | ATAD2 BRD KD [1] | Molecule | other results
1.169 | 392 ± 19.5 | – | CC(=O)NCCCC[C@H](NC(=O)CNC(=O)CN)C(=O)NCC(=O)N[C@@H](CC(C)C)C(=O)NCC(=O)N[C@@H](CCCCNC(C)=O)C(=O)NCC(=O)NCC(=O)N[C@@H](C)C(N)=O [H4K8acK12ac (res 6–15)] | –
1.170 | 95.1 ± 13.1 | – | CC(=O)NCCCC[C@H](NC(=O)CNC(=O)[C@H](CC(C)C)NC(=O)CNC(=O)[C@H](CCCCN)NC(=O)CNC(=O)CNC(=O)[C@H](CCCCN)NC(=O)CN)C(=O)NCC(=O)NCC(=O)N[C@@H](C)C(=O)N[C@@H](CCCCN)C(=O)N[C@@H](CCCNC(=N)N)C(N)=O [H4K12ac (res 4–17)] | KD (ATAD2 BRD mutant N1064A): No binding; KD (ATAD2 BRD mutant I1074A): No binding; KD (ATAD2 BRD mutant I1074Y): No binding
– | – | No Binding | ARTKQTARKSTG [H3 unmodified (res 1–12), unmodified histone H3 tail peptide, residues 1–12] | –
– | – | No Binding | ARTKQTARKacSTG [H3K9ac (res 1–12), histone H3 tail peptide, residues 1–12, acetylated at K9] | –
– | – | – | ATAD2 bromodomain (from UniProt Q6PL18) | Kd [2]: 44.5 µM; Kd [3]: 1130 µM
– | – | No Binding | GKGGKGLGKGGAKR [H4 unmodified (res 4–17), unmodified histone H4 tail peptide, residues 4–17; free N-terminus, amidated C-terminus] | –
– | – | No Binding | GKGGKacGLGKGGAKR [H4K8ac (res 4–17), histone H4 tail peptide, residues 4–17, acetylated at K8] | ATAD2 BRD KD ([1]; listed as H5K8ac (4–17)): complete lack of binding
– | – | No Binding | GKacGGKGLGKGGAKR [H4K5ac (res 4–17), histone H4 tail peptide, residues 4–17, acetylated at K5] | ATAD2 BRD KD ([1]; listed as H4K5ac (4–17)): complete lack of binding
1.082 | 303 ± 18.7 | – | LGK(Ac)GGAK(Ac)RHRK-NH2 [H4K12acK16ac (res 10–20)] | –
– | – | No Binding | LGKGGAKacRHRK [H4K16ac (res 10–20), histone H4 tail peptide, residues 10–20, acetylated at K16] | –
– | – | No Binding | RKSTGGKAPRKacQ [H3K18ac (res 8–19), histone H3 tail peptide, residues 8–19, acetylated at K18] | –
– | – | No Binding | RKSTGGKacAPRKQ [H3K14ac (res 8–19), histone H3 tail peptide, residues 8–19, acetylated at K14] | ATAD2 BRD KD ([1]; listed as H3K14ac): did not observe any binding
0.938 | 33.2 ± 5.9 | – | SGRGK(Ac)GGK(Ac)GL-NH2 [H4K5acK8ac (res 1–10)] | N-Value (stoichiometry of binding) [4]: 0.974; Kd [4]: 15.9 ± 2.5 µM; KD (ATAD2 BRD mutant N1064A): No binding; KD (ATAD2 BRD mutant I1074A): No binding; KD (ATAD2 BRD mutant I1074Y): No binding
1.070 | 44.5 ± 3.3 | – | SGRGK(Ac)GGKGL-NH2 [H4K5ac (res 1–10)] | N-Value (stoichiometry of binding) [4]: 1.021; Kd [4]: 10.1 ± 1.3 µM
0.997 | 38.9 ± 5.9 | – | SGRGK(Ac)QGGKARA-NH2 [H2AK5ac (res 1–12)] | –
1.144 | 1130 ± 122 | – | SGRGKGGK(Ac)GL-NH2 [H4K8ac (res 1–10)] | –
– | – | – | ATAD2 bromodomain (protein) RLEEQEEDTFRELRIFLRNVTHRLAIDKRFRVFTKPVDPDEVPDYVTVIKQPMDLSSVISKIDLHKYLTVKDYLRDIDLICSNALEYNPDRDPGDRLIRHRACALRDTAYAIIKEELDE | Kd (histone H4K5acK8ac 1-10): 33.2 µM; Kd (histone H4K12ac 4-17): 95.1 µM
